According to patent US12171230B2, “Herbicidal compositions” (Bayer Aktiengesellschaft, priority 2018, dated 2024):

Experiments:
Format in all cases: in vivo
Panicum maximum = assay: Post-emergence herbicidal action against Panicum maximum; settings: g of a.i./ha: 200, 100, 100 + 200
Experimental: (§1) When the observed efficacies exceed the formal sum total of the values of the tests with individual applications, they also exceed the expected value according to Colby, which is calculated using the formula below and is likewise regarded as an indication of synergism (cf. S. R. Colby; in Weeds 15 (1967) p. 20 to 22): E^C=A+B−([…])
(§2) Here: • A=efficacy of the active compound (A) in % at an application rate of a g a.i./ha; • B=efficacy of the active compound (B) in % at an application rate of b g a.i./ha; • E^C=expected value of the effect of the combination (A)+(B) in % at the combined application rate a+b g a.i./ha.
(§3) Seeds or rhizome pieces of mono- and dicotyledonous weeds are placed in sandy loam in pots, covered with soil and grown in a greenhouse under good growth conditions (temperature, air humidity, water supply). Three weeks after sowing, the test plants were treated at the three-leaf stage with the compositions according to the invention. The compositions according to the invention formulated as spray powders or as emulsion concentrates were sprayed onto the green plant parts in various dosages with an application rate of 300 to 800 l/ha of water (equivalent). After the test plants have been left to stand in the greenhouse under optimal growth conditions for about 3 to 4 weeks, the action of the preparations is scored visually in comparison to untreated controls. The compositions according to the invention also have good post-emergence herbicidal activity against a broad spectrum of economically important gramineous and broadleaf weeds.

Lamium purpureum = assay: Post-emergence herbicidal action against Lamium purpureum
Procedure, shortened: (§4)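 Pot-grown plants, three weeks old at the three-leaf stage, received foliar sprays of various dosages. Visual assessment relative to untreated plants followed 3 to 4 weeks later.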

Amaranthus palmeri = assay: Post-emergence herbicidal action against Amaranthus palmeri; settings: 21 DAT; 30 g of a.i./ha
Procedure, shortened: as §4

Bidens pilosa = assay: Post-emergence herbicidal action against Bidens pilosa; settings: for Herbicidal action against Bidens pilosa: 21 DAT
Procedure, shortened: as §4

Digitaria sanguinalis = assay: Post-emergence herbicidal action against Digitaria sanguinalis; settings: (Z61) post-emergence; g of a.i./ha: 180, 100, 100 + 180
Procedure, shortened: as §4

Poa annua = assay: Post-emergence herbicidal action against Poa annua
Procedure, shortened: as §4

Galium aparine = assay: Post-emergence herbicidal action against Galium aparine
Procedure, shortened: as §4

Matricaria inodora = assay: Post-emergence herbicidal action against Matricaria inodora
Chenopodium album = assay: Post-emergence herbicidal action against Chenopodium album; settings: g of a.i./ha: 180, 100, 100 + 180
Experimental: as §1, §2, §3

Phalaris minor = assay: Post-emergence herbicidal action against Phalaris minor
Procedure, shortened: (§5)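 Rates are given as grams of active ingredient (100% active compound) per hectare. E^A is the summed effect of the individual applications and E^C the expected value by Colby, with ratings timed in days after application (DAT).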

Alopecurus myosuroides = assay: Post-emergence herbicidal action against Alopecurus myosuroides
Procedure, shortened: as §5

Brachiaria plantaginea = assay: Post-emergence herbicidal action against Brachiaria plantaginea; settings: (Z61) post-emergence; g of a.i./ha: 200, 100, 100 + 200
Excerpt: (§6) The following abbreviations are used in the description and the tables that follow: • g of a.i./ha=grams of active substance (active ingredient) (=100% active compound) per hectare; • The sum total of the effects of the individual applications is reported under E^A; • expected values according to Colby are each reported under E^C.
(§7) The rating period is reported in days after application (DAT).

Bromus sterilis = assay: Post-emergence herbicidal action against Bromus sterilis
Procedure, shortened: as §5

Veronica hederifolia = assay: Post-emergence herbicidal action against Veronica hederifolia; settings: g of a.i./ha: 16, 270, 16 + 270
Excerpt: as §6, §7

Brachiaria decumbens = assay: Post-emergence herbicidal action against Brachiaria decumbens; settings: g of a.i./ha: 200, 100, 100 + 200
Excerpt: as §6, §7

Viola tricolor = assay: Post-emergence herbicidal action against Viola tricolor
Excerpt: as §6, §7

Abutilon theophrasti = assay: Post-emergence herbicidal action against Abutilon theophrasti; settings: g of a.i./ha: 90, 30, 15, 15 + 90, 15 + 30
Excerpt: as §6, §7

**Q.** Which results are given for `O=C(Nc1ccc(F)cc1F)c1cccnc1Oc1cccc(C(F)(F)F)c1` [(B2.18) Diflufenican]?
**A.** Herbicidal action 28 DAT against Panicum maximum (Panicum maximum): 0%; Herbicidal action 14 DAT against Lamium purpureum L. (Lamium purpureum; 30 g of a.i./ha): 20%; Herbicidal action 28 DAT against Lamium purpureum L. (Lamium purpureum; 30 g of a.i./ha): 10%; Herbicidal action 28 DAT against Lamium purpureum L. (Lamium purpureum; 90 g of a.i./ha): 20%; Herbicidal action 28 DAT against Lamium purpureum L. (Lamium purpureum; (Z61) post-emergence, g of a.i./ha by row: 4, 1, 270, 30, 90, 4 + 270, 4 + 30, 1 + 270, 1 + 90, 1 + 30): 20%; Herbicidal action 14 DAT against Lamium purpureum L. (Lamium purpureum; (Z119) post-emergence, g of a.i./ha by row: 16, 30, 16 + 30): 20%; Herbicidal action against Amaranthus palmeri (res.) (Amaranthus palmeri): 40%; Herbicidal action against Bidens pilosa (Bidens pilosa; 90 g of a.i./ha): 35%; Herbicidal action against Bidens pilosa (Bidens pilosa; 270 g of a.i./ha): 45%; Herbicidal action 21 DAT against Bidens pilosa (Bidens pilosa; post-emergence, g of a.i./ha: 90, 30, 15, 15 + 90, 15 + 30): 10%; Herbicidal action 37 DAT against Digitaria sanguinalis (Digitaria sanguinalis): 0%; Herbicidal action 28 DAT against Poa annua L. (Poa annua; 30 g of a.i./ha): 0%; Herbicidal action 28 DAT against Poa annua L. (Poa annua; 90 g of a.i./ha): 0%; Herbicidal action 28 DAT against Poa annua L. (Poa annua; 270 g of a.i./ha): 0%; Herbicidal action 14 DAT against Poa annua L. (Poa annua; (Z61) post-emergence, g of a.i./ha: 16, 1, 270, 90, 16 + 270, 16 + 90, 1 + 270, 1 + 90): 20%; Herbicidal action 28 DAT against Poa annua L. (Poa annua; (Z119) post-emergence, g of a.i./ha: 16, 1, 270, 90, 30, 16 + 270, 16 + 90, 16 + 30, 1 + 270): 0%; Herbicidal action 28 DAT against Galium aparine (Galium aparine; 30 g of a.i./ha): 0%; Herbicidal action 28 DAT against Galium aparine (Galium aparine; 90 g of a.i./ha): 20%; Herbicidal action 14 DAT against Galium aparine (Galium aparine; (Z119) post-emergence, g of a.i./ha by row: 1, 30, 1 + 30): 30%; Herbicidal action 28 DAT against Galium aparine (Galium aparine; (Z119) post-emergence, g of a.i./ha: 16, 4, 30, 16 + 30, 4 + 30): 0%; Herbicidal action 14 DAT against Matricaria inodora (Matricaria inodora; 90 g of a.i./ha): 50%; Herbicidal action 28 DAT against Matricaria inodora (Matricaria inodora; (Z61) post-emergence, g of a.i./ha: 4, 1, 30, 4 + 30, 1 + 30): 0%; Herbicidal action 28 DAT against Matricaria inodora (Matricaria inodora; (Z119) post-emergence, g of a.i./ha by row: 16, 4, 270, 90, 16 + 270, 4 + 90): 50%; Herbicidal action 27 DAT against Chenopodium album (Chenopodium album): 20%; Herbicidal action 28 DAT against Phalaris minor (Phalaris minor; 30 g of a.i./ha): 0%; Herbicidal action 28 DAT against Phalaris minor (Phalaris minor; 90 g of a.i./ha): 0%; Herbicidal action 28 DAT against Phalaris minor (Phalaris minor; 270 g of a.i./ha): 5%; Herbicidal action 28 DAT against Phalaris minor (Phalaris minor; (Z119) post-emergence, g of a.i./ha: 16, 4, 270, 90, 30, 16 + 270, 16 + 90, 16 + 30, 4 + 270, 4 + 30, 90 g of a.i./ha): 0%; Herbicidal action 28 DAT against Phalaris minor (Phalaris minor; (Z119) post-emergence, g of a.i./ha: 16, 4, 270, 90, 30, 16 + 270, 16 + 90, 16 + 30, 4 + 270, 4 + 30, 270 g of a.i./ha): 5%; Herbicidal action 14 DAT against Phalaris minor (Phalaris minor; (Z119) post-emergence, g of a.i./ha: 16, 4, 270, 90, 270, 16 + 270, 16 + 90, 4 + 270): 5%; Herbicidal action 28 DAT against Alopecurus myosuroides (Alopecurus myosuroides; (Z61) post-emergence, g of a.i./ha by row: 16, 4, 1, 270, 90, 16 + 270, 4 + 270, 4 + 90, 1 + 270, 1 + 90, 90 g of a.i./ha): 15%; Herbicidal action 28 DAT against Alopecurus myosuroides (Alopecurus myosuroides; (Z61) post-emergence, g of a.i./ha by row: 16, 4, 1, 270, 90, 16 + 270, 4 + 270, 4 + 90, 1 + 270, 1 + 90, 270 g of a.i./ha): 20%; Herbicidal action 14 DAT against Alopecurus myosuroides (Alopecurus myosuroides; (Z61) post-emergence, g of a.i./ha: 4, 1, 270, 90, 4 + 270, 4 + 90, 1 + 270, 1 + 90, 90 g of a.i./ha): 15%; Herbicidal action 14 DAT against Alopecurus myosuroides (Alopecurus myosuroides; (Z61) post-emergence, g of a.i./ha: 4, 1, 270, 90, 4 + 270, 4 + 90, 1 + 270, 1 + 90, 270 g of a.i./ha): 20%; Herbicidal action 28 DAT against Alopecurus myosuroides (Alopecurus myosuroides; (Z119) post-emergence, g of a.i./ha by row: 16, 1, 270, 90, 30, 16 + 270, 16 + 90, 16 + 30, 1 + 270, 1 + 90): 0%; Herbicidal action 14 DAT against Alopecurus myosuroides (Alopecurus myosuroides; (Z119) post-emergence, g of a.i./ha: 16, 1, 270, 16 + 270, 1 + 270): 10%; Herbicidal action 28 DAT against Brachiaria plantaginea (Brachiaria plantaginea): 0%; Herbicidal action 14 DAT against Bromus sterilis (Bromus sterilis; (Z61) post-emergence, g of a.i./ha by row: 4, 1, 270, 90, 4 + 270, 1 + 270, 1 + 90, 90 g of a.i./ha): 10%; Herbicidal action 14 DAT against Bromus sterilis (Bromus sterilis; (Z61) post-emergence, g of a.i./ha by row: 4, 1, 270, 90, 4 + 270, 1 + 270, 1 + 90, 270 g of a.i./ha): 15%; Herbicidal action 28 DAT against Bromus sterilis (Bromus sterilis; (Z61) post-emergence, g of a.i./ha: 1, 270, 90, 1 + 270, 1 + 90, 90 g of a.i./ha): 15%; Herbicidal action 28 DAT against Bromus sterilis (Bromus sterilis; (Z61) post-emergence, g of a.i./ha: 1, 270, 90, 1 + 270, 1 + 90, 270 g of a.i./ha): 20%; Herbicidal action 28 DAT against Bromus sterilis (Bromus sterilis; (Z119) post-emergence, g of a.i./ha: 1, 270, 1 + 270): 0%; Herbicidal action 14 DAT against Bromus sterilis (Bromus sterilis; (Z119) post-emergence, g of a.i./ha: 1, 270, 90, 1 + 270, 1 + 90): 5%; Herbicidal action 28 DAT against Bromus sterilis (Bromus sterilis; (Z148) post-emergence, g of a.i./ha: 1, 270, 90, 30, 1 + 270, 1 + 90, 1 + 30): 0%; Herbicidal action 14 DAT against Bromus sterilis (Bromus sterilis; (Z148) post-emergence, g of a.i./ha: 4, 1, 270, 90, 30, 4 + 270, 4 + 90, 4 + 30, 1 + 30, 30 g of a.i./ha): 0%; Herbicidal action 14 DAT against Bromus sterilis (Bromus sterilis; (Z148) post-emergence, g of a.i./ha: 4, 1, 270, 90, 30, 4 + 270, 4 + 90, 4 + 30, 1 + 30, 270 g of a.i./ha): 5%; Herbicidal action 14 DAT against Veronica hederifolia (Veronica hederifolia): 85%; Herbicidal action 28 DAT against Brachiaria decumbens (Brachiaria decumbens): 0%; Herbicidal action 28 DAT against Viola tricolor (Viola tricolor; (Z61) post-emergence, g of a.i./ha: 16, 1, 30, 16 + 30, 1 + 30): 40%; Herbicidal action 14 DAT against Viola tricolor (Viola tricolor; (Z119) post-emergence, g of a.i./ha: 16, 270, 16 + 270): 40%; Herbicidal action 21 DAT against Abutilon theophrasti (Abutilon theophrasti): 10%
